Eight molecules from ChEMBL document CHEMBL1201862, “PubChem BioAssay data set” (2004) can be followed below.

The target of assay [1] is Melanin-concentrating hormone receptor 1 (Homo sapiens, UniProt Q99705). The assay can be described thus: Late-stage fluorescence-based counterscreen for antagonists of the G-protein coupled receptor 7 (GPR7): cell-based dose response assay to identify antagonists of the melanin-concentrating hormone receptor 1 (MCHR1) Set 6. The class given is functional.
In assay [2] the target is Neuropeptides B/W receptor type 1 (Homo sapiens, UniProt P48145). The experiment in a line: GPR7 antagonist potency, late-stage follow-up, cell-based, fluorescence, dose response, set 6 (AID 588583). The assay is classed as functional.
Chain of Neuropeptides B/W receptor type 1 (P48145 whole entry): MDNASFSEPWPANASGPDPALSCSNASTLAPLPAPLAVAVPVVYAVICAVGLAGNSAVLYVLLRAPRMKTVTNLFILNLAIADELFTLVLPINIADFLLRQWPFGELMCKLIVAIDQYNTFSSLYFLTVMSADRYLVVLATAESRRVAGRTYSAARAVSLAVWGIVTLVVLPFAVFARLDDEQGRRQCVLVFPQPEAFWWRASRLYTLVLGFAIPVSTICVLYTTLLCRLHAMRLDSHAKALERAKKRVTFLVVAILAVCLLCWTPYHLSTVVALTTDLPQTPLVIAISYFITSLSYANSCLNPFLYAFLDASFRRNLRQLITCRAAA
The target in assay [3] is Heat shock protein HSP 90-alpha (Homo sapiens, UniProt P07900). The assay is classed as functional, organism-based.
The target in the next assay is T1, Caspase-7 (Homo sapiens, UniProt P55210).
T1 sequence (P55210 whole entry): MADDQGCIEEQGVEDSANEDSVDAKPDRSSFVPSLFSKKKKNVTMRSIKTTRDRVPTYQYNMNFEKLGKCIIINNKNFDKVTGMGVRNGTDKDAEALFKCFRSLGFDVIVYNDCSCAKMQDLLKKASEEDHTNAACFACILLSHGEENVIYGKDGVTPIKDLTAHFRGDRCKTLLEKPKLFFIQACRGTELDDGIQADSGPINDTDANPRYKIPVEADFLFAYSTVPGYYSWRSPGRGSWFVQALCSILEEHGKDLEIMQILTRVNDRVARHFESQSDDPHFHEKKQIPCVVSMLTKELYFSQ
The assay can be described thus: human caspase-7 inhibitors, dose response, selectivity assay for caspase-6 inhibitor project, biochemical, DEVD-R110 fluorescence, cherry-pick (AID 743295). The class given is […].

The target in another assay is Caspase-8 (Homo sapiens, UniProt Q14790). The experiment in a line: caspase-8 inhibition counter-screen, dose response, selectivity assay for caspase-6 inhibitor project, biochemical, Z-IETD-R110 fluorescence, cherry-picked samples (AID 743294).
Chain of Caspase-8 (Q14790 217-374 limits assumed): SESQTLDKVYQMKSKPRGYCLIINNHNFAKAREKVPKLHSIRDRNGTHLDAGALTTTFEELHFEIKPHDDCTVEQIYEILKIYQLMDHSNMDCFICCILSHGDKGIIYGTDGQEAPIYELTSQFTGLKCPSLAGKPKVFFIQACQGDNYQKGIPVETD
Chain of Caspase-8 (Q14790 385-479 limits assumed): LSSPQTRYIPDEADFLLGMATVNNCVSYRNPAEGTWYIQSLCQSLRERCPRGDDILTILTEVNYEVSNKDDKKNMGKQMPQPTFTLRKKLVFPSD
The next assay has as its target T2, Caspase-6 (Homo sapiens, UniProt P55212).
T2 sequence (P55212 whole entry): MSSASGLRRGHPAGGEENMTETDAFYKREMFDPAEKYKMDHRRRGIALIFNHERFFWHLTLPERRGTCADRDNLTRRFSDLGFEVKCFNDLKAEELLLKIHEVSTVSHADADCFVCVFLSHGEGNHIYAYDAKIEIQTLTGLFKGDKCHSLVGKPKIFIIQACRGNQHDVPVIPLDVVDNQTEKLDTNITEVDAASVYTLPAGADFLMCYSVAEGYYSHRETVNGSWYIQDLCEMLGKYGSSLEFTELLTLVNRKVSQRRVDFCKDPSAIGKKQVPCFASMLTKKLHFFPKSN
The assay can be described thus: human caspase-6 inhibitors, dose response, biochemical, VEID-R110 fluorescence, cherry-pick (AID 720632).

Assay [4] deals with Mitochondrial peptide methionine sulfoxide reductase (Bos taurus, UniProt P54149). The experiment in a line: Absorbance-based biochemical high throughput dose response assay for activators of Methionine sulfoxide reductase A (MsrA). The assay is classed as functional.
Chain of Mitochondrial peptide methionine sulfoxide reductase (P54149 whole entry): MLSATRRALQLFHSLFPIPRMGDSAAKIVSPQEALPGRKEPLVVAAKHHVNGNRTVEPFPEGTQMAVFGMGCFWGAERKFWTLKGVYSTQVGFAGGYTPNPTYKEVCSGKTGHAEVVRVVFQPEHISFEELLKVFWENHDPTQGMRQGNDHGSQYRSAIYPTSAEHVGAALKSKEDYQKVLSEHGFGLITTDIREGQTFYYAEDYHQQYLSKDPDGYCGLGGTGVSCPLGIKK
Assay [5] deals with T3, High affinity choline transporter 1 (Homo sapiens, UniProt Q9GZV3).
T3 sequence (Q9GZV3 whole entry): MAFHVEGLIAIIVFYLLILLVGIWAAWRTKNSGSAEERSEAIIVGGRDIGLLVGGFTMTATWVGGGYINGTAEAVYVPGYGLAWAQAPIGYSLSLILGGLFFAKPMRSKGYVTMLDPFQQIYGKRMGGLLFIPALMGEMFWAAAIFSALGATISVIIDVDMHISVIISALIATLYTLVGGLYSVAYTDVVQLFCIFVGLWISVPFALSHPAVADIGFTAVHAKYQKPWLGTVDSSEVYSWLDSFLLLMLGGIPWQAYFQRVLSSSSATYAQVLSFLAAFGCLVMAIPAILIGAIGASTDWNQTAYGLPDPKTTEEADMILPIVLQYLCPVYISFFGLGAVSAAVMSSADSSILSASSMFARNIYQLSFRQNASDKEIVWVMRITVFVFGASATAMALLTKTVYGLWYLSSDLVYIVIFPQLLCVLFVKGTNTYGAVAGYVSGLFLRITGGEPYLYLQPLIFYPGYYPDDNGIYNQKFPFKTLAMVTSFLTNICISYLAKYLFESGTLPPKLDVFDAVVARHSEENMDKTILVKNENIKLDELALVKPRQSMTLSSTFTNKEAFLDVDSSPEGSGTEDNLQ
The experiment in a line: CHT inhibitors, dose response, cell-based, 5-point CRC, membrane potential dye (AID 504840). The class given is functional.

Assay [6] addresses T3, High affinity choline transporter 1. The assay can be described thus: CHT inhibitors, dose response, cell-based, 10-point CRC, membrane potential dye (AID 588401).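 Note: membrane potential dye fluorescence of choline-evoked depolarization via CHT.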 The class given is functional.
Assay [7] deals with T4, Corticotropin-releasing factor receptor 2/Corticotropin-releasing factor-binding protein (Homo sapiens, UniProt P24387+Q13324).
T4 sequence (Q13324 whole entry): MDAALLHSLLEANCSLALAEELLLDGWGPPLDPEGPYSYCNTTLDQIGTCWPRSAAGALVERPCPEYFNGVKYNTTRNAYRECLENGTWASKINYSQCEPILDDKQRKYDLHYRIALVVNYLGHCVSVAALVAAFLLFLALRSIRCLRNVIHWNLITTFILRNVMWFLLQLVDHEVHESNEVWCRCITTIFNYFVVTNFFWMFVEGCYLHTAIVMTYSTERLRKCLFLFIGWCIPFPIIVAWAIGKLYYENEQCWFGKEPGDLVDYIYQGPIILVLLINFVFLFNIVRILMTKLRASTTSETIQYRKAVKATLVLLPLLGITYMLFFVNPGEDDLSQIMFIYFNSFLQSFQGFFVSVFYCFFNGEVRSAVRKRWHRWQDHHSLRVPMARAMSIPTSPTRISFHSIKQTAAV
T4 sequence (P24387 whole entry): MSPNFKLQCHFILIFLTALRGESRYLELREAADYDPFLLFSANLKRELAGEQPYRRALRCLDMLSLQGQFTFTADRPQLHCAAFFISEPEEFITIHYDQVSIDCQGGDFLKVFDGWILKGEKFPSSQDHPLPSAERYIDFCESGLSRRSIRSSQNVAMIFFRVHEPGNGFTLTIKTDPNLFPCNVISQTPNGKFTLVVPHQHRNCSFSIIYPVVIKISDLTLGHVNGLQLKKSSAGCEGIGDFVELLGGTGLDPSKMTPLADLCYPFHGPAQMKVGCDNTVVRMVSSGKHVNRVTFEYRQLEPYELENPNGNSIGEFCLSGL
The experiment in a line: Dose Response confirmation of uHTS hits for small molecule antagonists of the CRF-binding protein and CRF-R2 receptor complex. The assay is classed as functional. To be noted: read-out: IC50_Mean.

A short description of assay [8]: CRF-BP/CRF-R2 complex antagonists, dose response, cell-based, uHTS hits, 384-well (AID 651639). The class given is functional, Homo sapiens. Particulars: read-out: IC50_Mean.
Assay [9] concerns the target T4, Corticotropin-releasing factor receptor 2/Corticotropin-releasing factor-binding protein. The assay can be described thus: activators of CRF receptor 2 with binding protein – uHTS hits, confirmation (AID 602473). The assay is classed as functional. To be noted: read-out: EC50_Mean.
The target of assay [10] is T5, Orexin receptor type 2 (Homo sapiens, UniProt O43614).
T5 sequence (O43614 whole entry): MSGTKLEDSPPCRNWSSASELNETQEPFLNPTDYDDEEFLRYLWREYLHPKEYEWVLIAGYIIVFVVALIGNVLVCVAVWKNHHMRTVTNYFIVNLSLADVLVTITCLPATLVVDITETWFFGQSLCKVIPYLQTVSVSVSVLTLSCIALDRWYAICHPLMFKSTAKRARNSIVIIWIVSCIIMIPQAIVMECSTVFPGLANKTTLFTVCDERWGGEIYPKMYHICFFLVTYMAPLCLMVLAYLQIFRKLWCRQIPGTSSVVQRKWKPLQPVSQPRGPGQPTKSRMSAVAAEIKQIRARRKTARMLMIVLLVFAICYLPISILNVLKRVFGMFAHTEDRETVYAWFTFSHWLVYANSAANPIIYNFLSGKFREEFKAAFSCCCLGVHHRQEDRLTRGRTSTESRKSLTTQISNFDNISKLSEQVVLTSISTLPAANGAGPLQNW
The assay can be described thus: Counterscreen assay for antagonists of the orexin 1 receptor (OX1R; HCRTR1): Fluorescence-based cell-based dose response assay for antagonists of the orexin 2 receptor (OX2R; HCRTR2), run by assay provider. The class given is functional.

Assay [11] can be described thus: A Cell Based Secondary Assay To Explore Cytotoxicity of Compounds that Sensitize Mycobacterium Tuberculosis to Beta-Lactam Antibiotics. The class given is functional.
Assay [12] addresses T5, Orexin receptor type 2. The experiment in a line: Counterscreen assay for antagonists of the orexin 1 receptor (OX1R; HCRTR1): Homogeneous Time Resolved Fluorescence (HTRF)-based cell-based dose response assay for antagonists of the orexin 2 receptor (OX2R; HCRTR2), run by assay provider. The assay is classed as functional.
A short description of assay [13]: Counterscreen for antagonists of the orexin 1 receptor (OX1R; HCRTR1): Fluorescence-based cell-based high throughput dose response assay to identify antagonists of the parental CHO cell line. [Related pubchem assays (depositor defined):AID434989, AID435008, AID463079, AID485270, AID492963, AID492964, AID492965, AID493232, AID504699, AID504701]. The assay is classed as functional.

Assay [14] addresses T6, Orexin/Hypocretin receptor type 1 (Homo sapiens, UniProt O43613).
T6 sequence (O43613 whole entry): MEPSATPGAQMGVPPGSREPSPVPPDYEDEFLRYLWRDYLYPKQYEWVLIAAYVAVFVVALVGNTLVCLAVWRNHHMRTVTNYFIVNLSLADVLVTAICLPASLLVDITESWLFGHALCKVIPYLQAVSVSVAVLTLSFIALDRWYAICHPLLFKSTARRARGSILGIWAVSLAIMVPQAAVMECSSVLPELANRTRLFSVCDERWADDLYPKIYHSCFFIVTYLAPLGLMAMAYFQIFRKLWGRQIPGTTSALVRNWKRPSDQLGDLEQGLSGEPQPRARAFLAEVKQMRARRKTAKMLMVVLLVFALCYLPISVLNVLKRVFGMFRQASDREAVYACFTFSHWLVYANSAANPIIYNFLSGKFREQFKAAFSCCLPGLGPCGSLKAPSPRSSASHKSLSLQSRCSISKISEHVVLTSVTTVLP
The experiment in a line: Fluorescence-based cell-based high throughput dose response assay for antagonists of the orexin 1 receptor (OX1R; HCRTR1). [Related pubchem assays (depositor defined):AID434989, AID435008, AID463079, AID485270, AID492963, AID492964, AID492965, AID493232, AID504717, AID504718]. The assay is classed as functional.

The subject of a further assay is CHO-K1. The assay can be described thus: Counterscreen for antagonists of the orexin 1 receptor (OX1R; HCRTR1): Homogeneous time resolved fluorescence (HTRF)-based cell-based dose response assay to identify antagonists of the parental CHO-K1 cell line. [Related pubchem assays (depositor defined):AID434989, AID435008, AID463079, AID485270, AID492963, AID492964, AID492965, AID493232, AID504699, AID504701]. The assay is classed as functional. To be noted: Cricetulus griseus.

The target in assay [15] is T6, Orexin/Hypocretin receptor type 1. The experiment in a line: Homogeneous Time Resolved Fluorescence (HTRF)-based cell-based high throughput dose response assay for antagonists of the orexin 1 receptor (OX1R; HCRTR1). [Related pubchem assays (depositor defined):AID434989, AID435008, AID463079, AID485270, AID492963, AID492964, AID492965, AID493232, AID504717, AID504718]. The assay is classed as functional.

For another assay, the target named is Melanocortin receptor 4 (Homo sapiens, UniProt P32245). The class given is functional, cell-based.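 Note: Cell-based assay with luminescence read-out, confirmatory dose-response testing for agonist activity of biased ligands at MC4R; human U2OS cells with tagged receptor and beta-arrestin; potency of agonists that increase receptor coupling to beta-arrestin.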
Chain of Melanocortin receptor 4 (P32245 whole entry): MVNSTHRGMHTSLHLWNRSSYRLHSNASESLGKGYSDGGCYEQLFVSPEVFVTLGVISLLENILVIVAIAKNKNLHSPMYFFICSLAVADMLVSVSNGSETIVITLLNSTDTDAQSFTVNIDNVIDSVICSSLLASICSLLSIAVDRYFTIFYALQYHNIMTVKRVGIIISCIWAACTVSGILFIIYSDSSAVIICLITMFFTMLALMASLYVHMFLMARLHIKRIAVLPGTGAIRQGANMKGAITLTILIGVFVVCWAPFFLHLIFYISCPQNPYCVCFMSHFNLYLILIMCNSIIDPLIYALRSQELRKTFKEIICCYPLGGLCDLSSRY
Assay [16] in a line: THP-1 cell cytotoxicity, dose response, cytotoxicity control for Vif-APOBEC3G degradation inhibitor project, THP-1 cells (AID 1117359). The assay is classed as functional. Particulars: Human immunodeficiency virus 1, THP-1.

SMILES strings stand for the structures. Calls of active or inactive are those of the source.

Chain of Melanin-concentrating hormone receptor 1 (Q99705 whole entry): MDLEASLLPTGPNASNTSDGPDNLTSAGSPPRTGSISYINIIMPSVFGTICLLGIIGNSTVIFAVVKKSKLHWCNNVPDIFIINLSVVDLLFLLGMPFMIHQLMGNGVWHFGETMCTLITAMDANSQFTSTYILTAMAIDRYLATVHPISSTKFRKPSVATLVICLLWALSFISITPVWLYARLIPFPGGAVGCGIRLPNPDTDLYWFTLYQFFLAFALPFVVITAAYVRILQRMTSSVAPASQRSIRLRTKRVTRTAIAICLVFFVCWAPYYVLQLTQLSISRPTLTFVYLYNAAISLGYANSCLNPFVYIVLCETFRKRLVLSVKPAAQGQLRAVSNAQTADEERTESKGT

Turning to `CCOc1ccc(C(C#N)c2c(Br)cnn(Cc3cccc4ccccc34)c2=O)cc1` (stereo unspecified), the IC50 in assay [1] and in assay [2] was 0.4 µM (active) throughout.

On to `CC(C)(C)c1ccc(NC(=O)COC(=O)c2ccc([N+](=O)[O-])s2)cc1`, for which the AC50 is 2.85 µM (active) in assay [3], 21.7 µM (active) on Caspase-7, 37.4 µM (active) at Caspase-8 and 3.59 µM (active) at Caspase-6. In addition, the EC50 in [4] is 54.7 µM (inactive).

In the case of `C/C(=N\N=C(N)N)c1ccc(Cl)cc1`, the IC50 in assay [5] was 7.39 µM (active); in assay [6] it was 4.01 µM (active).

Consider `CC(c1ccco1)N(C(=O)c1ccccc1NS(=O)(=O)c1ccc(Cl)c([N+](=O)[O-])c1)c1ccccn1` (stereo unspecified), for which the IC50 in assay [5] is 0.661 µM (inconclusive); in [7], 20.3 µM (active); in assay [8], 18 µM (active); in assay [6], 4.01 µM (active). In assay [9], the EC50 is > 53 µM (inactive).

`O=C(Nc1cccc(S(=O)(=O)NCc2ccco2)c1)c1cc(-c2ccc(F)cc2)nc2ccccc12`: the IC50 was 9.9 µM (active) on Orexin receptor type 2 [10]; > 50 µM (inactive) on Orexin receptor type 2 [12]; > 49.8 µM (inactive) in [13]; 17.2 µM (inactive) in assay [14]; > 66.2 µM (inactive) in the assay with CHO-K1; 6.13 µM (active) in assay [15]. Also, the CC50 in assay [11] was 2.38 µM (active).

`NC(Cc1ccc(Cl)cc1)c1csc(Nc2ccc(-c3ccccc3)nn2)n1` (stereo unspecified): the EC50 at Melanocortin receptor 4 was > 89.2 µM (inactive).

As to `Cc1c2ccccc2nc2c(F)c(N(C)C)c(F)c(F)c12`, the IC50 is 32.2 µM (inactive) at Orexin receptor type 2 [10]; > 50 µM (inactive) on Orexin receptor type 2 [12]; 19.7 µM (inactive) in assay [13]; 2.19 µM (active) in [14]; > 66.2 µM (inactive) with CHO-K1; 1.01 µM (active) in [15]. The CC50 in assay [16] is > 40 µM (active).

`O=c1c(-c2ccccc2F)c(Br)cnn1Cc1cccc2ccccc12`: the IC50 in [1] and in assay [2] was 3.58 µM (active) each time.
